Source: US20220143116A1 (priority 2019, published 2022)
Several values for one entry are separate records, joined by “and”; a condition that tells them apart may be missing. Identical values can stand only once.

Tests used:
[1] = test system: B16TK cells; assay type: cell-based, murine
[2] = test system: B16TK (scrambled shRNA) or B16TK (shRNA APOBEC3) tumors; design: species or system C57Bl/6 mice; conditions: mouse, in vivo
[3] = test system: B16TK-hAPOBEC3B subcutaneous tumors; design: species or system C57BL/6 mice; conditions: mouse, in vivo
[4] = test system: B16TK-hAPOBEC3B tumors; design: species or system C57BL/6 mice; conditions: mouse, in vivo

## Nc1nc(O)c2ncn(COC(CO)CO)c2n1 [ganciclovir]
[1]
  sensitivity of B16TK cells to treatment: sensitive
[2]
  long term survivors: 0/7 and 4/7
[3]
  tumor growth following GCV treatment: grew significantly more quickly
[4]
  tumor growth following GCV treatment: grew significantly more quickly
